We go through five compounds from ChEMBL document CHEMBL5038640, “Natural Berberine-derived Azolyl Ethanols as New Structural Antibacterial Agents against Drug-Resistant Escherichia coli” (J Med Chem, 2022).

The subject of series [1] is Staphylococcus aureus. Kind of series: Antibacterial activity against methicillin-resistant Staphylococcus aureus N315 assessed as decrease in bacterial growth incubated for 18 hrs by broth microdilution method. The format is functional.
The test system of a further series is Enterococcus faecalis. Kind of series: Antibacterial activity against Enterococcus faecalis assessed as decrease in bacterial growth incubated for 18 hrs by broth microdilution method. The class given is functional. (In broth dilution the organism is exposed to a series of concentrations in liquid medium.)
Series [2] deals with Staphylococcus aureus. Kind of series: Antibacterial activity against Staphylococcus aureus assessed as decrease in bacterial growth incubated for 18 hrs by broth microdilution method. The format is functional.
The subject of series [3] is Staphylococcus aureus. In words: Antibacterial activity against Staphylococcus aureus ATCC 25923 assessed as decrease in bacterial growth incubated for 18 hrs by broth microdilution method. The class given is functional.
The subject of series [4] is Staphylococcus aureus. In words: Antibacterial activity against Staphylococcus aureus ATCC 29213 assessed as decrease in bacterial growth incubated for 18 hrs by broth microdilution method. The class given is functional.
A further series relates to Klebsiella pneumoniae. Kind of series: Antibacterial activity against Klebsiella pneumoniae assessed as decrease in bacterial growth incubated for 18 hrs by broth microdilution method. The format is functional.
Series [5] has as its system Escherichia coli. In words: Antibacterial activity against Escherichia coli assessed as decrease in bacterial growth incubated for 18 hrs by broth microdilution method. The class given is functional.
Series [6] deals with Pseudomonas aeruginosa. Kind of series: Antibacterial activity against Pseudomonas aeruginosa assessed as decrease in bacterial growth incubated for 18 hrs by broth microdilution method. The class given is functional.
For the next series, the system named is Acinetobacter baumannii. Kind of series: Antibacterial activity against Acinetobacter baumannii assessed as decrease in bacterial growth incubated for 18 hrs by broth microdilution method. The format is functional.
The test system of series [7] is Pseudomonas aeruginosa. In words: Antibacterial activity against Pseudomonas aeruginosa ATCC 27853 assessed as decrease in bacterial growth incubated for 18 hrs by broth microdilution method. The class given is functional.
Series [8] concerns Escherichia coli. Kind of series: Antibacterial activity against Escherichia coli ATCC 25922 assessed as decrease in bacterial growth incubated for 18 hrs by broth microdilution method. The class given is functional.
A short description of series [9]: Aqueous solubility of the compound in saline. The format is physicochemical.

On to `COc1ccc2cc3[n+](cc2c1OCC(O)Cn1ccnc1)CCc1cc2c(cc1-3)OCO2.[Br-]` (stereo not given), for which the MIC (usually the smallest concentration in the dilution series that meets the test's criterion for growth inhibition) in the series with Staphylococcus aureus [1] is 61 µM; in the series with Enterococcus faecalis, 124 µM; in the series with Staphylococcus aureus [2], 124 µM; in the series on Staphylococcus aureus [3], 124 µM; in the series with Staphylococcus aureus [4], 124 µM; in the series with Klebsiella pneumoniae, 61 µM. Moreover, the MIC with Escherichia coli [5] was 61 µM; in the series with Pseudomonas aeruginosa [6], 124 µM; with Acinetobacter baumannii it was 61 µM; with Pseudomonas aeruginosa [7], 124 µM; in the series on Escherichia coli [8] it was 124 µM. In addition, in series [9], the concentration in solution (solubility) came to 1800 µM.

For `COc1ccc2cc3[n+](cc2c1OCC(O)Cn1cnc([N+](=O)[O-])c1)CCc1cc2c(cc1-3)OCO2.[Br-]` (stereo not given), the minimum inhibitory concentration (MIC) in the series with Staphylococcus aureus [1] came to 56 µM; with Enterococcus faecalis it was 112 µM; in the series on Staphylococcus aureus [2] it was 112 µM; with Staphylococcus aureus [3] it was 112 µM; in the series on Staphylococcus aureus [4] it was 56 µM; in the series with Klebsiella pneumoniae, 56 µM. The minimal inhibitory concentration (MIC) with Escherichia coli [5] is 28 µM; in the series with Pseudomonas aeruginosa [6] it was 112 µM; in the series on Acinetobacter baumannii, 112 µM; in the series on Pseudomonas aeruginosa [7], 56 µM; with Escherichia coli [8], 112 µM. For the same compound, in [9], the concentration in solution (solubility) was 936 µM.

On to `COc1ccc2cc3[n+](cc2c1OCC(O)Cn1nnc2ccccc21)CCc1cc2c(cc1-3)OCO2.[Br-]` (stereo not given), for which the MIC worked out at 111 µM in the series with Staphylococcus aureus [1]; 111 µM with Enterococcus faecalis; 111 µM in the series with Staphylococcus aureus [2]; 55 µM in the series with Staphylococcus aureus [3]; 55 µM with Staphylococcus aureus [4]; 111 µM in the series with Klebsiella pneumoniae. Further, the MIC in the series on Escherichia coli [5], with Pseudomonas aeruginosa [6], in the series with Acinetobacter baumannii, in the series with Pseudomonas aeruginosa [7] and in the series with Escherichia coli [8] was 111 µM throughout. For the same compound, the solubility (as a rule, the concentration that dissolves in the medium under given conditions) in series [9] stood at 1720 µM.

`COc1ccc2cc3[n+](cc2c1OCC(O)CN1CCCCC1)CCc1cc2c(cc1-3)OCO2.[Br-]` (stereo not given): the MIC was determined as 59 µM in the series on Staphylococcus aureus [1]; 118 µM in the series with Enterococcus faecalis; 118 µM with Staphylococcus aureus [2]; 236 µM in the series with Staphylococcus aureus [3]; 236 µM in the series with Staphylococcus aureus [4]; 236 µM with Klebsiella pneumoniae. Besides, the MIC in the series on Escherichia coli [5] came out at 118 µM; in the series on Pseudomonas aeruginosa [6], 118 µM; in the series with Acinetobacter baumannii it was 118 µM; with Pseudomonas aeruginosa [7], 236 µM; with Escherichia coli [8], 236 µM. The concentration in solution in series [9] (solubility) was 2000 µM.

Regarding `COc1ccc2cc3[n+](cc2c1OCC(O)Cn1cnc2cc([N+](=O)[O-])ccc21)CCc1cc2c(cc1-3)OCO2.[Br-]` (stereo not given), the MIC came to 103 µM in the series on Staphylococcus aureus [1]; 51 µM in the series with Enterococcus faecalis; 103 µM in the series with Staphylococcus aureus [2]; 26 µM in the series on Staphylococcus aureus [3]; 51 µM in the series with Staphylococcus aureus [4]; 103 µM in the series on Klebsiella pneumoniae. Also, the MIC in the series with Escherichia coli [5] came to 51 µM; in the series with Pseudomonas aeruginosa [6], 103 µM; in the series on Acinetobacter baumannii, 103 µM; in the series on Pseudomonas aeruginosa [7], 26 µM; in the series on Escherichia coli [8], 103 µM. The same compound displayed a solubility in series [9] of 895 µM.
